{
  "source": "ChEMBL document CHEMBL1134824",
  "about": "“Beta-D-glycosylamidines: potent, selective, and easily accessible 1-glycosidase inhibitors” (Bioorg Med Chem Lett, 2001)",
  "key": {"[1]": {"assay": "Compound was evaluated for the selective and competitive inhibition of Beta-galactosidase from Escherichia coli at 2.5 mM; NI = No inhibition; call rule not given here"}, "[2]": {"assay": "Compound was evaluated for the selective and competitive inhibition of Beta-galactosidase from Aspergillus oryzae at 2.5 mM; NI = No inhibition"}, "[3]": {"assay": "Compound was evaluated for the selective and competitive inhibition of Beta-galactosidase from Aspergillus pulverulentus"}, "[4]": {"assay": "Compound was evaluated for the selective and competitive inhibition of beta-glucosidase from Aspergillus niger"}, "[5]": {"assay": "Compound was evaluated for the selective and competitive inhibition of Beta-glucosidase from Trichoderma viride"}, "[6]": {"assay": "Compound was evaluated for the selective and competitive inhibition of Alpha-glucosidase from Bacillus sp. at 2.5 mM; NI = No inhibition"}, "[7]": {"assay": "Compound was evaluated for the selective and competitive inhibition of Alpha-glucosidase from Aspergillus niger at 2.5 mM; NI = No inhibition"}, "[8]": {"assay": "Compound was evaluated for the selective and competitive inhibition of Beta-glucosidase from Almond", "design": "species or system Prunus dulcis"}, "[9]": {"assay": "Compound was evaluated for the selective and competitive inhibition of Alpha-glucosidase from Yeast at 2.5 mM", "design": "species or system Saccharomyces cerevisiae"}, "[10]": {"assay": "Compound was evaluated for the basicity, pKa of the conjugate acids", "type": "physicochemical"}, "[11]": {"assay": "Compound was evaluated for the selective and competitive inhibition of Beta-galactosidase from Escherichia coli"}, "[12]": {"assay": "Compound was evaluated for the selective and competitive inhibition of Alpha-glucosidase from Yeast", "design": "species or system Saccharomyces cerevisiae"}, "[13]": {"assay": "Compound was evaluated for the selective and competitive inhibition of Alpha-glucosidase from Aspergillus niger"}, "[14]": {"assay": "Compound was evaluated for the selective and competitive inhibition of Beta-glucosidase from Almond at 2.5 mM; NI = No inhibition", "design": "species or system Prunus dulcis"}, "[15]": {"assay": "Compound was evaluated for the selective and competitive inhibition of Beta-glucosidase from Aspergillus niger"}, "[16]": {"biological_target": "T1, Exo-1,4-beta-xylosidase xlnD (Aspergillus niger, UniProt O00089)", "T1 sequence (O00089 whole entry)": "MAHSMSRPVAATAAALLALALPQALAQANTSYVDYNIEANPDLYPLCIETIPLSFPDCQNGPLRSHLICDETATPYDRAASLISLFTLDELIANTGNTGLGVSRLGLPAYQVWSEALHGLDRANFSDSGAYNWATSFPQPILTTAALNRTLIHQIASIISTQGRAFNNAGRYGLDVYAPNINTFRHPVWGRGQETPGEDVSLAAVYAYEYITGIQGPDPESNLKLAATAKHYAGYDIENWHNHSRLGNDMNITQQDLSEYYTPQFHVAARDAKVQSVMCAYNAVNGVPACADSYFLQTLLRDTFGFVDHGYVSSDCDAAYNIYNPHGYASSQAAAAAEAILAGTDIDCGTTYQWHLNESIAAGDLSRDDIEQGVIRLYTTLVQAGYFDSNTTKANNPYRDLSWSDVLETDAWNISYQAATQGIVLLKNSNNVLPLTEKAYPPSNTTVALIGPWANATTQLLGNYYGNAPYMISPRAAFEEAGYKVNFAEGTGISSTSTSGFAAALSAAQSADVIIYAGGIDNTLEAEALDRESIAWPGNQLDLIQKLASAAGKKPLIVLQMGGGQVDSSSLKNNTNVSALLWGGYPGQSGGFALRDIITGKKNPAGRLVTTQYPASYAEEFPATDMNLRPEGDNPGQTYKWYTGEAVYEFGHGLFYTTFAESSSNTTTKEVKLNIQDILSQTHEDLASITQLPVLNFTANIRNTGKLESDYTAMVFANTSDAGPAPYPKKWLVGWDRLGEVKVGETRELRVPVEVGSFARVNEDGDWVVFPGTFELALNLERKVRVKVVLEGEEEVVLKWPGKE", "assay": "Compound was evaluated for the selective and competitive inhibition of beta-xylosidase from A. pulverulentus; NI = No inhibition at 2.5 mM", "design": "species or system Aspergillus pulverulentus"}, "[17]": {"assay": "Compound was evaluated for the selective and competitive inhibition of Beta-xylosidase from Aspergillus pulverulentus at 2.5 mM; NI = No inhibition"}, "[18]": {"assay": "Compound was evaluated for the selective and competitive inhibition of Alpha-glucosidase from Bacillus sp."}, "[19]": {"assay": "Compound was evaluated for the selective and competitive inhibition of Beta-galactosidase from Aspergillus oryzae"}, "[20]": {"biological_target": "T1, Exo-1,4-beta-xylosidase xlnD", "assay": "Compound was evaluated for the selective and competitive inhibition of Beta-xylosidase from Aspergillus pulverulentus"}, "[21]": {"assay": "Compound was evaluated for the selective and competitive inhibition of Alpha-glucosidase from Yeast at 2.5 mM; NI = No inhibition", "design": "species or system Saccharomyces cerevisiae"}},
  "data": [
    {"smiles": "Br.N=C(Cc1ccccc1)NC1OCC(O)C(O)C1O", "note": "(centres undefined)", "values": [
      {"measurement": "Ki", "setting": "[1]", "result": "Not Active"},
      {"measurement": "Ki", "setting": "[2]", "result": "Not Active"},
      {"measurement": "Ki", "setting": "[3]", "result": 2.5, "unit": "µM"},
      {"measurement": "Ki", "setting": "[4]", "result": 11, "unit": "µM"},
      {"measurement": "Ki", "setting": "[5]", "result": 13, "unit": "µM"},
      {"measurement": "Ki", "setting": "[6]", "result": "Not Active"},
      {"measurement": "Ki", "setting": "[7]", "result": "Not Active"},
      {"measurement": "Ki", "setting": "[8]", "result": 1100, "unit": "µM"},
      {"measurement": "Ki", "setting": "[9]", "result": "No inhibition"}
    ]},
    {"smiles": "NC1OCC(O)C(O)C1O", "note": "(centres undefined)", "values": [
      {"measurement": "pKa", "setting": "[10]", "result": 5.6}
    ]},
    {"smiles": "O=C(Cc1ccccc1)NC1OC(CO)C(O)C(O)C1O", "note": "(centres undefined)", "values": [
      {"measurement": "Ki", "setting": "[11]", "result": "> 2000", "unit": "µM"},
      {"measurement": "Ki", "setting": "[12]", "result": "> 2500", "unit": "µM"},
      {"measurement": "Ki", "setting": "[2]", "result": "Not Active"},
      {"measurement": "Ki", "setting": "[13]", "result": "> 2500", "unit": "µM"},
      {"measurement": "Ki", "setting": "[5]", "result": 770, "unit": "µM"},
      {"measurement": "Ki", "setting": "[6]", "result": "Not Active"},
      {"measurement": "Ki", "setting": "[14]", "result": "Not Active"},
      {"measurement": "Ki", "setting": "[15]", "result": 770, "unit": "µM"},
      {"measurement": "Ki", "setting": "[16]", "result": "No inhibition"}
    ]},
    {"smiles": "NC1OC(CO)C(O)C(O)C1O", "note": "(centres undefined)", "values": [
      {"measurement": "pKa", "setting": "[10]", "result": 5.6}
    ]},
    {"smiles": "Br.N=C(Cc1ccccc1)NC1OC(CO)C(O)C(O)C1O", "note": "(stereo in doubt; 1a)", "values": [
      {"measurement": "Ki", "setting": "[1]", "result": "Not Active"},
      {"measurement": "Ki", "setting": "[12]", "result": 21, "unit": "µM"},
      {"measurement": "Ki", "setting": "[2]", "result": "Not Active"},
      {"measurement": "Ki", "setting": "[13]", "result": "> 2500", "unit": "µM"},
      {"measurement": "Ki", "setting": "[5]", "result": 0.13, "unit": "µM"},
      {"measurement": "Ki", "setting": "[17]", "result": "Not Active"},
      {"measurement": "Ki", "setting": "[18]", "result": "> 2500", "unit": "µM"},
      {"measurement": "Ki", "setting": "[7]", "result": "Not Active"},
      {"measurement": "Ki", "setting": "[15]", "result": 0.094, "unit": "µM"},
      {"measurement": "Ki", "setting": "[8]", "result": 73, "unit": "µM"}
    ]},
    {"smiles": "Br.N=C(Cc1ccccc1)NC1OC(CO)C(O)C(O)C1O", "note": "(stereo in doubt; 1b)", "values": [
      {"measurement": "Ki", "setting": "[11]", "result": 7.8, "unit": "µM"},
      {"measurement": "Ki", "setting": "[13]", "result": 47, "unit": "µM"},
      {"measurement": "Ki", "setting": "[5]", "result": 390, "unit": "µM"},
      {"measurement": "Ki", "setting": "[19]", "result": 2.4, "unit": "µM"},
      {"measurement": "Ki", "setting": "[20]", "result": 1000, "unit": "µM"},
      {"measurement": "Ki", "setting": "[21]", "result": "Not Active"},
      {"measurement": "Ki", "setting": "[6]", "result": "Not Active"},
      {"measurement": "Ki", "setting": "[15]", "result": 390, "unit": "µM"},
      {"measurement": "Ki", "setting": "[8]", "result": 41, "unit": "µM"}
    ]}
  ]
}
